Some test systems named below: NCI-H522 lung; SF-295 CNS; SF-539 CNS; LOX IMVI melanoma; UACC-257 melanoma; U251 CNS; UACC-62 melanoma; HOP-92 NSCLC; HT29 colon; CAKI-1 renal.
Common to all, as to assay: DTP human tumour cell line panel, 48 h

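Results reflect a 48-hour exposure of cells in 96-well plates to compound at five concentrations. Definition used: TGI = concentration required for complete inhibition of growth.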

As usually defined, the TGI is the concentration at which net growth stops.

On to `COc1cc(S(=O)(=O)Nc2nc(-c3ccc(N4C(=O)C(CC(=O)O)SC4c4cccs4)cc3)cs2)ccc1Cl` (stereo not given), for which the TGI in the experiment with NCI-H522 lung was 37.1 µM; in the experiment with SF-295 CNS it was more than 100 µM; in the experiment on SF-539 CNS it was more than 100 µM; with LOX IMVI melanoma, 39.3 µM; in the experiment on UACC-257 melanoma, more than 100 µM; with U251 CNS it was more than 100 µM. For the same molecule, the TGI with UACC-62 melanoma is 48.9 µM; in the experiment with HOP-92 NSCLC, 89.5 µM; with HT29 colon, more than 100 µM; with CAKI-1 renal, more than 100 µM.

As to `COC(=O)[C@@H](O)[C@](O)(CCC(C)C)C(=O)O[C@@H]1C(OC)=C[C@]23CCCN2CCc2cc4c(cc2[C@H]13)OCO4`, the concentration for total growth inhibition (TGI) in the experiment on NCI-H522 lung came to 2.99 µM; with SF-295 CNS, 5.68 µM; in the experiment with SF-539 CNS, 3.16 µM; in the experiment with LOX IMVI melanoma, 5.21 µM; in the experiment with UACC-257 melanoma, 6.06 µM; with U251 CNS, 6.05 µM. For the same molecule, the TGI in the experiment on UACC-62 melanoma came to 29.4 µM; with HOP-92 NSCLC it was 6.26 µM; with HT29 colon, 12.2 µM; in the experiment on CAKI-1 renal, 7.36 µM.

Consider `COc1ccc(C(=C2C=CC=C2)c2ccc(OC)cc2)cc1`, for which the TGI is 40.4 µM in the experiment with NCI-H522 lung; 54.4 µM in the experiment with SF-295 CNS; 29.6 µM in the experiment with SF-539 CNS; 33.7 µM with LOX IMVI melanoma; more than 100 µM with UACC-257 melanoma; 71.6 µM in the experiment on U251 CNS. For the same molecule, the TGI with UACC-62 melanoma is 98.1 µM; in the experiment with HOP-92 NSCLC it was more than 100 µM; in the experiment on HT29 colon, 66 µM; in the experiment with CAKI-1 renal it was 56.3 µM.

Source of the values: PubChem BioAssay (NCI).
